Measurements taken from patent publication US9629822B2, “Flavonoid based antiviral targets” (UNIVERSITY OF CENTRAL FLORIDA RESEARCH FOUNDATION, INC., priority 2012, dated 2017).
Like-named read-outs stand apart in the source and are kept apart here.

Columns and labels:
[1] = system: mock transfected 293T HEK cells; experiment: PathDetect Elk1 luminescence in mock transfected (empty pcDNA3 vector) 293T HEK cells, off-target effect; type: cell-based, human; details: for activation at 10 µM: Homo sapiens, read-out: Effect(%) on mock cells with each drug at 10 μM
Summary of the method: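 HEK 293T cells were transiently transfected with PathDetect Elk1/luciferase and empty pcDNA3, then exposed to 10 μM compound in medium with 1% FBS and 1% DMSO for 20-24 h at 37 °C. BrightGlo luminescence was compared with the 1% DMSO control: % effect = 100%×(mock/DMSO) − 100%.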

[2] = 10 μM vs 1% DMSO control, Equation 1

With COc1ccc(Br)cc1/C=C/C(=O)c1ccc2ccccc2c1O [Compound 8m, (E)-3-(5-bromo-2-methoxyphenyl)-1-(1-hydroxynaphthalen-2-yl)prop-2-en-1-one] the melting point was 117 to 127 °C, the “Effect(%) on mock cells with each drug at 10 μM” value (from here on “Effect(%) on mock cells”) [1, 2] was 35% and the activation at 10 µM [1, 2] was 35%.

With COc1ccc(Cl)cc1-c1oc2ccccc2c(=O)c1O [Compound 9h, 2-(5-chloro-2-methoxyphenyl)-3-hydroxy-4H-chromen-4-one] the melting point was 160 to 167 °C, the “Effect(%) on mock cells” value [1, 2] was 2% and the activation at 10 µM [1, 2] was 2%.

With COc1ccccc1-c1oc2ccccc2c(=O)c1O [Compound 9a, 3-Hydroxy-2-(2-methoxyphenyl)-4H-chromen-4-one] the activation at 10 µM [1, 2] was -1%.

In the case of COc1ccc(Br)cc1-c1cc(=O)c2c(O)cccc2o1 [Compound 12b, 2-(5-Bromo-2-methoxyphenyl)-5-hydroxy-4H-chromen-4-one], the melting point is reported as 175 to 180 °C and the activation at 10 µM [1, 2] is reported as -16%.

In the case of COc1ccc(Br)cc1/C=C/C(=O)c1c(O)cccc1OCc1ccccc1 [Compound 8l, (E)-1-(2-(Benzyloxy)-6-hydroxyphenyl)-3-(5-bromo-2-methoxyphenyl)prop-2-en-1-one], the “toxicity at 10 μM in HEK cells, in words” value ([1]; 10 μM) is reported as “very toxic” and the “Effect(%) on mock cells” value [1, 2] is reported as “Toxic”.

In the case of COc1ccc(Br)cc1-c1oc2ccccc2c(=O)c1O [Compound 9b, 2-(5-Bromo-2-methoxyphenyl)-3-hydroxy-4H-chromen-4-one], the melting point is reported as 159 to 161 °C and the activation at 10 µM [1, 2] is reported as -11%.

In the case of COc1ccccc1-c1cc(=O)c2c(O)cccc2o1 [Compound 12a, 5-Hydroxy-2-(2-methoxyphenyl)-4H-chromen-4-one], the activation at 10 µM [1] is reported as 2%.
